Test results as given in the NIST ThermoML archive (doi:10.1021/je7003098).
± gives the expanded uncertainty stated by the source.

Details: for surface tension liquid-gas: Ring tensiometer; for mass density: 101.33 kPa, Liquid, Pycnometric method

CCCCCCCCCCCCCC[P+](CCCCCC)(CCCCCC)CCCCCC.N#C[N-]C#N [tetradecyl(trihexyl)phosphonium dicyanamide]
Details	mass density [kg/m3]	surface tension liquid-gas [mN/m]
295.06 K	–	35.22 ± 5
298.15 K	920.9 ± 25	–
299.35 K	–	34.85 ± 5
302.95 K	–	34.58 ± 4.9
303.15 K	917.3 ± 25	–
305.04 K	–	34.45 ± 4.9
308.15 K	916.3 ± 25	–
310.4 K	–	34.06 ± 4.9
313.15 K	913.1 ± 25	–
314.39 K	–	33.8 ± 4.8
318.15 K	910.1 ± 25	–
318.38 K	–	33.5 ± 4.8
322.47 K	–	33.24 ± 4.8
323.15 K	907.5 ± 25	–
326.14 K	–	32.94 ± 4.7
327.42 K	–	32.61 ± 4.7
328.15 K	905 ± 25	–
333.02 K	–	32.2 ± 4.6
333.15 K	902.4 ± 25	–
338.6 K	–	31.66 ± 4.5
343.13 K	–	31.33 ± 4.5
348.47 K	–	31.09 ± 4.4

CCCCCCCC[N+](C)(CCCCCCCC)CCCCCCCC.O=S(=O)([N-]S(=O)(=O)C(F)(F)F)C(F)(F)F
Details	mass density [kg/m3]	surface tension liquid-gas [mN/m]
298.15 K	1082.3 ± 26	–
299.46 K	–	29.06 ± 4.2
303.15 K	1080.3 ± 26	–
303.25 K	–	28.93 ± 4.1
308.15 K	1077.3 ± 26	–
310.18 K	–	28.53 ± 4.1
313.15 K	1073.8 ± 26	–
313.77 K	–	28.23 ± 4
318.15 K	1073.8 ± 26	–
318.67 K	–	27.85 ± 4
321 K	–	27.63 ± 4
323.15 K	1067.2 ± 26	–
326.3 K	–	27.18 ± 3.9
328.15 K	1063.9 ± 26	–
329.6 K	–	27.01 ± 3.9
333.15 K	1061.1 ± 26	–
336.79 K	–	26.69 ± 3.8

CCCCn1cc[n+](C)c1.F[P-](F)(F)(F)(F)F [1-butyl-3-methylimidazolium hexafluorophosphate]
Details	surface tension liquid-gas [mN/m]
298.15 K	47.92 ± 6.8
301.32 K	47.71 ± 6.8
305.79 K	47.48 ± 6.7
309.6 K	47.29 ± 6.7
315.44 K	46.92 ± 6.7
319.95 K	46.55 ± 6.6
325.06 K	46.15 ± 6.6
328.68 K	46.04 ± 6.5
332.22 K	45.81 ± 6.5
335.61 K	45.41 ± 6.5

CCCCCCCCCCCCCC[P+](CCCCCC)(CCCCCC)CCCCCC.[Cl-] [trihexyl(tetradecyl)phosphonium chloride]
Details	mass density [kg/m3]	surface tension liquid-gas [mN/m]
297.99 K	–	33.62 ± 4.8
298.15 K	882.6 ± 25	–
302.94 K	–	33.15 ± 4.7
303.15 K	880.1 ± 25	–
307.4 K	–	32.72 ± 4.6
308.15 K	877.9 ± 25	–
312.09 K	–	32.3 ± 4.6
313.15 K	875.4 ± 25	–
315.84 K	–	32.01 ± 4.5
318.15 K	873.1 ± 25	–
319.49 K	–	31.74 ± 4.5
323.15 K	869.4 ± 25	–
323.95 K	–	31.43 ± 4.5
327.96 K	–	31.15 ± 4.4
328.15 K	866.9 ± 25	–
332.81 K	–	30.76 ± 4.4
333.15 K	864.4 ± 25	–
337.27 K	–	30.42 ± 4.3
342.09 K	–	30 ± 4.3
347.68 K	–	29.55 ± 4.2

CCCCCCCCCCCCCC[P+](CCCCCC)(CCCCCC)CCCCCC.O=S(=O)([N-]S(=O)(=O)C(F)(F)F)C(F)(F)F
Details	mass density [kg/m3]	surface tension liquid-gas [mN/m]
298.15 K	1050.1 ± 25	–
298.2 K	–	33.08 ± 4.7
303 K	–	32.57 ± 4.6
303.15 K	1048.3 ± 25	–
308 K	–	32.15 ± 4.5
308.15 K	1045.2 ± 25	–
313 K	–	31.77 ± 4.5
313.15 K	1042 ± 25	–
318 K	–	31.4 ± 4.4
318.15 K	1039.2 ± 25	–
323.15 K	1035.6 ± 25	–
323.3 K	–	31.09 ± 4.4
327.9 K	–	30.65 ± 4.3
328.15 K	1032.9 ± 25	–
332.9 K	–	30.28 ± 4.3
333.15 K	1029.6 ± 25	–
338.9 K	–	29.68 ± 4.2
344.2 K	–	29.45 ± 4.2
349.8 K	–	28.93 ± 4.1

CCCCCC[n+]1ccn(C)c1.O=S(=O)([N-]S(=O)(=O)C(F)(F)F)C(F)(F)F
Details	surface tension liquid-gas [mN/m]
297.22 K	35.98 ± 5.1
301.22 K	35.79 ± 5
305.48 K	35.54 ± 5
309.14 K	35.35 ± 5
312.48 K	35.15 ± 4.9
316.28 K	35.03 ± 4.9
319.87 K	34.84 ± 4.9
323.57 K	34.63 ± 4.9
327.48 K	34.45 ± 4.9
331.24 K	34.26 ± 4.8
334.91 K	34.07 ± 4.8
340.92 K	33.76 ± 4.8
346.42 K	33.44 ± 4.7

CCCCCCCCCC[N+](C)(C)C.O=S(=O)([N-]S(=O)(=O)C(F)(F)F)C(F)(F)F
Details	mass density [kg/m3]	surface tension liquid-gas [mN/m]
298.15 K	1226.3 ± 26	–
300.96 K	–	35.42 ± 5.1
302.95 K	–	35.12 ± 5
303.15 K	1222.2 ± 26	–
307.75 K	–	34.81 ± 5
308.15 K	1218.6 ± 26	–
312.28 K	–	34.55 ± 4.9
313.15 K	1214.7 ± 26	–
318.08 K	–	34.2 ± 4.9
318.15 K	1210.6 ± 26	–
323.15 K	1206.3 ± 26	–
324.03 K	–	33.71 ± 4.8
328.15 K	1204.7 ± 26	–
330.53 K	–	33.36 ± 4.8
333.15 K	1200.3 ± 26	–
337.12 K	–	32.82 ± 4.7
342.53 K	–	32.51 ± 4.6
347.26 K	–	32.23 ± 4.6

CCCCCCCCCCCCCC[P+](CCCC)(CCCC)CCCC.CCCCCCCCCCCCc1ccccc1S(=O)(=O)[O-] [tributyl(tetradecyl)phosphonium 2-dodecylbenzenesulfonate]
Details	mass density [kg/m3]
298.15 K	938.4 ± 25
303.15 K	937.1 ± 25
308.15 K	933.7 ± 25
313.15 K	931.1 ± 25
318.15 K	928.4 ± 25
323.15 K	925.4 ± 25
328.15 K	922.8 ± 25
333.15 K	920.1 ± 25

CCCCCC[N+](CC)(CC)CC.O=S(=O)([N-]S(=O)(=O)C(F)(F)F)C(F)(F)F [triethylhexylammonium bis((trifluoromethyl)sulfonyl)imide]
Details	mass density [kg/m3]	surface tension liquid-gas [mN/m]
298.15 K	1279.3 ± 26	–
299.54 K	–	35.17 ± 5
302.65 K	–	34.9 ± 5
303.15 K	1275.4 ± 26	–
307.05 K	–	34.45 ± 4.9
308.15 K	1271.9 ± 26	–
313.15 K	1267.6 ± 26	–
313.73 K	–	33.88 ± 4.8
318.15 K	1264.4 ± 26	–
319.84 K	–	33.49 ± 4.8
323.15 K	1260.8 ± 26	–
324.94 K	–	32.98 ± 4.7
328.15 K	1257.4 ± 26	–
329.34 K	–	32.72 ± 4.7
333.15 K	1253 ± 26	–
335.04 K	–	32.47 ± 4.6
341.93 K	–	31.98 ± 4.6
347.11 K	–	31.45 ± 4.5

CCCCCC[N+](C)(C)C.O=S(=O)([N-]S(=O)(=O)C(F)(F)F)C(F)(F)F [hexyltrimethylammonium bis[(trifluoromethyl)sulfonyl]imide]
Details	mass density [kg/m3]	surface tension liquid-gas [mN/m]
298.15 K	1310.6 ± 26	–
300.35 K	–	35.88 ± 5.1
302.35 K	–	35.71 ± 5.1
303.15 K	1307.8 ± 26	–
304.25 K	–	35.57 ± 5.1
307.65 K	–	35.32 ± 5
308.15 K	1304 ± 26	–
311.05 K	–	35.09 ± 5
313.15 K	1299.5 ± 26	–
314.75 K	–	34.86 ± 5
318.15 K	1295.7 ± 26	34.64 ± 5
322.55 K	–	34.36 ± 4.9
323.15 K	1292.1 ± 26	–
326.25 K	–	34.14 ± 4.9
328.15 K	1287.9 ± 26	–
331.35 K	–	33.86 ± 4.8
333.15 K	1283.9 ± 26	–
333.35 K	–	33.77 ± 4.8

CCn1cc[n+](C)c1.O=S(=O)([N-]S(=O)(=O)C(F)(F)F)C(F)(F)F
Details	surface tension liquid-gas [mN/m]
298.7 K	41.62 ± 5.9
302.05 K	41.38 ± 5.8
305.74 K	41.19 ± 5.8
309.16 K	41.02 ± 5.8
312.6 K	40.87 ± 5.8
316.2 K	40.67 ± 5.7
319.33 K	40.5 ± 5.7
322.63 K	40.39 ± 5.7
326.13 K	40.19 ± 5.6
331.02 K	39.94 ± 5.6

CCn1cc[n+](C)c1.O=S(=O)([O-])C(F)(F)F [1-ethyl-3-methylimidazolium trifluoromethanesulfonate]
Details	surface tension liquid-gas [mN/m]
296.28 K	44.46 ± 6.2
300.79 K	44.36 ± 6.2
304.95 K	44.2 ± 6.2
308.14 K	44.07 ± 6.2
312.41 K	43.9 ± 6.2
317.15 K	43.81 ± 6.2
321.93 K	43.64 ± 6.1
328.68 K	43.37 ± 6.1
333.64 K	43.15 ± 6.1
337.82 K	42.99 ± 6
343.49 K	42.82 ± 6
347.91 K	42.62 ± 6
353.56 K	42.49 ± 6

CCCC[P+](CC)(CCCC)CCCC.CCOP(=O)([O-])OCC [tributylethylphosphonium diethylphosphate]
Details	mass density [kg/m3]	surface tension liquid-gas [mN/m]
296.66 K	–	33.6 ± 4.8
298.15 K	997.8 ± 26	–
302.18 K	–	33.29 ± 4.8
303.15 K	995.7 ± 26	–
307.24 K	–	33.14 ± 4.7
308.15 K	992.8 ± 26	–
312.34 K	–	32.82 ± 4.7
313.15 K	989.7 ± 26	–
318.15 K	985.8 ± 26	–
318.36 K	–	32.24 ± 4.6
323.15 K	982.6 ± 26	–
323.59 K	–	31.62 ± 4.5
328.15 K	979.5 ± 26	–
329.67 K	–	31.14 ± 4.5
333.15 K	975.8 ± 26	–
336.36 K	–	30.66 ± 4.4
343.4 K	–	30.15 ± 4.3
347.75 K	–	29.82 ± 4.3
350.86 K	–	29.59 ± 4.2

CCCC[N+](C)(C)C.O=S(=O)([N-]S(=O)(=O)C(F)(F)F)C(F)(F)F [butyltrimethylammonium bis(trifluoromethylsulfonyl)imide]
Details	mass density [kg/m3]	surface tension liquid-gas [mN/m]
298.15 K	1374.7 ± 27	–
298.35 K	–	38.05 ± 5.4
302.33 K	–	37.9 ± 5.4
303.15 K	1368.6 ± 27	–
306.15 K	–	37.8 ± 5.4
308.15 K	1365.6 ± 27	–
309.93 K	–	37.69 ± 5.4
313.15 K	1361.4 ± 27	–
314.79 K	–	37.48 ± 5.3
318.15 K	1357.3 ± 27	–
320.39 K	–	37.28 ± 5.3
323.15 K	1353.7 ± 27	–
326.4 K	–	37.09 ± 5.3
328.15 K	1349.7 ± 27	–
330.16 K	–	36.91 ± 5.3
333.15 K	1343.9 ± 27	–
335.64 K	–	36.68 ± 5.2
340.58 K	–	36.5 ± 5.2

CCCCCC[N+](C)(C)CCC.O=S(=O)([N-]S(=O)(=O)C(F)(F)F)C(F)(F)F
Details	mass density [kg/m3]	surface tension liquid-gas [mN/m]
298.15 K	1284.6 ± 26	–
300.1 K	–	36.74 ± 5.2
302 K	–	36.58 ± 5.2
303.1 K	–	36.49 ± 5.2
303.15 K	1281.6 ± 26	–
304 K	–	36.42 ± 5.2
306 K	–	36.25 ± 5.2
308.1 K	–	36.11 ± 5.2
308.15 K	1277.5 ± 26	–
312.3 K	–	35.78 ± 5.1
313.15 K	1273.2 ± 26	–
315.2 K	–	35.55 ± 5.1
318 K	–	35.33 ± 5
318.15 K	1269.9 ± 26	–
320.6 K	–	35.14 ± 5
322.6 K	–	35.01 ± 5
323.15 K	1266 ± 26	–
328.15 K	1266 ± 26	–
333.15 K	1258.5 ± 26	–
